In assay [1] the target is T1, Mitogen-activated protein kinase kinase kinase 7 (Homo sapiens) (UniProt O43318).
T1 sequence (whole entry): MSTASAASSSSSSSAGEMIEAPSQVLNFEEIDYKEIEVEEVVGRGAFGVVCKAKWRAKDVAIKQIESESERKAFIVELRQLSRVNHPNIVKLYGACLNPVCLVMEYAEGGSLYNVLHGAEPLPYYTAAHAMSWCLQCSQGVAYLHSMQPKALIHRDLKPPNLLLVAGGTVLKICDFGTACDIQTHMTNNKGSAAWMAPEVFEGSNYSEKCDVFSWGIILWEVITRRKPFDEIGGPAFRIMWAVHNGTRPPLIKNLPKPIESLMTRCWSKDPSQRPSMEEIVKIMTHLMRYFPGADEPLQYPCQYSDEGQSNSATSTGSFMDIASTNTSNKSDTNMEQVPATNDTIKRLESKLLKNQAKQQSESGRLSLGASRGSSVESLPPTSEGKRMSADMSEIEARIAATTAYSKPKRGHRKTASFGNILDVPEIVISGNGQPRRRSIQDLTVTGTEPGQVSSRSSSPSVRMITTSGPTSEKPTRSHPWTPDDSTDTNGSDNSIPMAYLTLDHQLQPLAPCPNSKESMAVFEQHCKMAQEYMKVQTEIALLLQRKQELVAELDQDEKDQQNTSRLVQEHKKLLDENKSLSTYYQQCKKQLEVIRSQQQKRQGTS
The assay is described as follows: Selectivity interaction (ActivX KiNativ screen (kinase selectivity in THP-1 cell lysates)) EUB0000639a MAP3K7. Conditions: lysate. The class given is subcellular.

In assay [2] the target is T2, Serine/threonine-protein kinase DCLK1 (Homo sapiens) (UniProt O15075).
T2 sequence (whole entry): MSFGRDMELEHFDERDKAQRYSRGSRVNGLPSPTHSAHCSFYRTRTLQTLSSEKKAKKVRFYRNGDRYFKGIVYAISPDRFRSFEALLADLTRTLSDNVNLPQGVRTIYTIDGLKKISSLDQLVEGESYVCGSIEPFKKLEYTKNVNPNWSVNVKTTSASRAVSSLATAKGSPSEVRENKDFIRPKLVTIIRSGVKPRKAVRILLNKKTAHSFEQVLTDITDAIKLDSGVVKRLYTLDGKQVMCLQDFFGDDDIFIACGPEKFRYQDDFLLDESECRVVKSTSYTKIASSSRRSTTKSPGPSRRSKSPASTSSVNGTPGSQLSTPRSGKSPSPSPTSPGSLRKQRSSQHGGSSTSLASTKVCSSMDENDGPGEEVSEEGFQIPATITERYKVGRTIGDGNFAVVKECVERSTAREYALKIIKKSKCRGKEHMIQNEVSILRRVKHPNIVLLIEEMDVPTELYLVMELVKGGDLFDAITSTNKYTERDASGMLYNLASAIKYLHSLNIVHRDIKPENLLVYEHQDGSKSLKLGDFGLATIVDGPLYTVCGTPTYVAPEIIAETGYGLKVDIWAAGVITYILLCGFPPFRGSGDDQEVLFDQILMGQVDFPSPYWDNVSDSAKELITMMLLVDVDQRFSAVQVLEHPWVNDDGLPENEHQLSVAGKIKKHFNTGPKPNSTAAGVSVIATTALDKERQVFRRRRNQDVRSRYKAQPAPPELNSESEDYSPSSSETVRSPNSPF
Briefly: Selectivity interaction (Kinase panel (DSF assay)) EUB0001559a DCLK1. A general note: DSF heats the sample and reads unfolding from a dye or from intrinsic fluorescence.

The target of assay [3] is T3, Aurora kinase C (Homo sapiens) (UniProt Q9UQB9).
T3 sequence (whole entry): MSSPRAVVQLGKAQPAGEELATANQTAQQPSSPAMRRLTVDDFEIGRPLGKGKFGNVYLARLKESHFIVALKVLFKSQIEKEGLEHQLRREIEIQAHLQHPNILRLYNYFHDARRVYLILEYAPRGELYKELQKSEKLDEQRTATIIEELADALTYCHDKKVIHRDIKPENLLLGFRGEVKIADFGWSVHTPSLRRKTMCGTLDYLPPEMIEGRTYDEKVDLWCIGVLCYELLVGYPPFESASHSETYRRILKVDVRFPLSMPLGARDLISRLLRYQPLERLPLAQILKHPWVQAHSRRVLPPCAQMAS
The assay is described as follows: Selectivity interaction (KinomeScan (DiscoverX)) EUB0000045b AURKC.

For assay [4], the target named is Serine/threonine-protein kinase PAK 4 (Homo sapiens, UniProt O96013). Briefly: Selectivity interaction (Ambit KINOMEscan and KiNATiv profiling in Jurkat cells) EUB0000090b PAK4. In kind it is cell-based. As to conditions: at 1 µM.
The target of assay [5] is Dual specificity tyrosine-phosphorylation-regulated kinase 1A (Homo sapiens, UniProt Q13627). The assay is described as follows: Selectivity interaction (KinomeScan (DiscoverX)) EUB0001079a DYRK1A. Conditions: at 1 µM.
The target in assay [6] is T4, Serine/threonine-protein kinase D2 (Homo sapiens) (UniProt Q9BZL6).
T4 sequence (whole entry): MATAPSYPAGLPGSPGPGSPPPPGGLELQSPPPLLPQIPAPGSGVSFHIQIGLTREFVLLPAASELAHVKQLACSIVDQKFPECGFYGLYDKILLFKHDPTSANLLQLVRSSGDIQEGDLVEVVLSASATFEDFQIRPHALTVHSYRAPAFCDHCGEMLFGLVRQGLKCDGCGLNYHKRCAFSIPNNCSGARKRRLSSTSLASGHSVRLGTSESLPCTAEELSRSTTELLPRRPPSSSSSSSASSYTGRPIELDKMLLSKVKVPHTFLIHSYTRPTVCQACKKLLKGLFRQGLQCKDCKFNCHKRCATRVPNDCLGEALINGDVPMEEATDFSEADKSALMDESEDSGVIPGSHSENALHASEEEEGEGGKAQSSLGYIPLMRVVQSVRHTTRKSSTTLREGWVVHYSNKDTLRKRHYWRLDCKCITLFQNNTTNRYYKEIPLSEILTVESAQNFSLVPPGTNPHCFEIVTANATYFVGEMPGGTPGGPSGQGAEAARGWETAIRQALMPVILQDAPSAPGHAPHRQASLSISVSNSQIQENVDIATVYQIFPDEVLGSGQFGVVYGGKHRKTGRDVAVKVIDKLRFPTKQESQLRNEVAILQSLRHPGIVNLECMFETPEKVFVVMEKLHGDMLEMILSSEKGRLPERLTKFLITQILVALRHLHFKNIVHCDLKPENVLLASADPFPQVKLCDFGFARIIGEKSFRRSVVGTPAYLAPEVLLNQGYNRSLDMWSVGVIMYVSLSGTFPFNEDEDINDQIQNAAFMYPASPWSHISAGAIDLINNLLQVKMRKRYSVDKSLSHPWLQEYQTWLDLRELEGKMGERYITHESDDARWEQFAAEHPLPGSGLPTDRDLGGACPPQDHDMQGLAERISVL
Briefly: Selectivity interaction (KinomeScan (DiscoverX)) EUB0001079a PRKD2. Conditions: at 1 µM.

Assay [7] has as its target Mitogen-activated protein kinase kinase kinase kinase 4 (Homo sapiens, UniProt O95819). The assay is described as follows: Selectivity interaction (KinomeScan (DiscoverX)) EUB0000229b MAP4K4. Conditions: at 10 µM.

The results in this text go back to ChEMBL document CHEMBL5465560, “Selectivity Literature for EUbOPEN Chemogenomic Library” (2024).

Structures are written as SMILES.

Serine/threonine-protein kinase PAK 4, sequence (O96013 whole entry, looked up): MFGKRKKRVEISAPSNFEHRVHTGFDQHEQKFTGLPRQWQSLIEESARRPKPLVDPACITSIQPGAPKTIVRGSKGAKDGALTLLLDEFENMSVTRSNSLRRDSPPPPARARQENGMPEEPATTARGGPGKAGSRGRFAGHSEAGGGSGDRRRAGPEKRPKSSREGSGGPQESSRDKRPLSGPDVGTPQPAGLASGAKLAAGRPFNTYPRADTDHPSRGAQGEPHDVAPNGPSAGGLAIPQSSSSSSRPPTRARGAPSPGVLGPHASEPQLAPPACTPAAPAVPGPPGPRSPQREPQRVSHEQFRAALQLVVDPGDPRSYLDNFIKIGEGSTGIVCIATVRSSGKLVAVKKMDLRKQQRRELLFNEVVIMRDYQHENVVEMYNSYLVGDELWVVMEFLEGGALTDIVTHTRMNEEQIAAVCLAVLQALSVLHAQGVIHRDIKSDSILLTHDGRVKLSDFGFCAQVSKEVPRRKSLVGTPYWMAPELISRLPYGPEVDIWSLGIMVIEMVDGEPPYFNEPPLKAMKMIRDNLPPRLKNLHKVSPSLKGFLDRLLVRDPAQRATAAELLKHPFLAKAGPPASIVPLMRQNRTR
Mitogen-activated protein kinase kinase kinase kinase 4, sequence (O95819 2-1239 limits assumed): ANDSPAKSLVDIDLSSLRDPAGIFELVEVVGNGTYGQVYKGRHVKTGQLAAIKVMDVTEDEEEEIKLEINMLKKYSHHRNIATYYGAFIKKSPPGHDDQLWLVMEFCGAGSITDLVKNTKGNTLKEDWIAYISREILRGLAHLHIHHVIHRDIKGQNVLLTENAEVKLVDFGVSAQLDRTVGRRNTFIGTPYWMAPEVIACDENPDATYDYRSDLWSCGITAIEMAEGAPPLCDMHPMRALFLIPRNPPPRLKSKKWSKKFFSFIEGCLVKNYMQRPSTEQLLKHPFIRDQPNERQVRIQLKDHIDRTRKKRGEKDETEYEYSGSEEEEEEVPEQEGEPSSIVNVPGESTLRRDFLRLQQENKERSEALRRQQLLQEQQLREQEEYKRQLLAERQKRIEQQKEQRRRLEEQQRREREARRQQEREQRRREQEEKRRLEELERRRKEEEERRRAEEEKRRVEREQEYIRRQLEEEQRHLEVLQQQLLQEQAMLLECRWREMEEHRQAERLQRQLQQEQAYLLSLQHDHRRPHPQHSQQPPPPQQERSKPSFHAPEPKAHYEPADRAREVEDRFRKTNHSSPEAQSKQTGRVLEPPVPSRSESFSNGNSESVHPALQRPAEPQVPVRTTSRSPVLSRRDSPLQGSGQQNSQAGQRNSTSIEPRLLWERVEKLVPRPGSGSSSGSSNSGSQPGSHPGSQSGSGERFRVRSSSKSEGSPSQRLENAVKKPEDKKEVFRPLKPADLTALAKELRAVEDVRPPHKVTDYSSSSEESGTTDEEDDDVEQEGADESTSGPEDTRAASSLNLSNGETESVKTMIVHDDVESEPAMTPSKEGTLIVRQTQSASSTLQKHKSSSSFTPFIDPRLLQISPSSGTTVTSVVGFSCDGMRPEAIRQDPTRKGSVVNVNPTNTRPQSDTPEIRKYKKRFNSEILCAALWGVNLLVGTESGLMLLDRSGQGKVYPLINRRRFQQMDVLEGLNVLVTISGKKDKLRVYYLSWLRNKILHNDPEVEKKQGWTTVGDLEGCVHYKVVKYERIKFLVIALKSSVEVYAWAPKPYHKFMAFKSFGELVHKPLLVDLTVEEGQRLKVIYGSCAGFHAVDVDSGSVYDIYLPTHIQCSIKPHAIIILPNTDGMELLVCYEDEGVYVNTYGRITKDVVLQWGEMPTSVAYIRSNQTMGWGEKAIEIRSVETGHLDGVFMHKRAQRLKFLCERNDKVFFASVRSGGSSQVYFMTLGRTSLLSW

For `CC[C@@H]1[C@H](F)C(=O)N[C@@H]1COc1nccc2cc(C(N)=O)c(OC)cc12` [ZIMLOVISERTIB], the % of inhibition in assay [1] (at 0.01 µM) is 6.8%; in assay [1] (at 0.04 µM) it was 3.8%; in assay [1] (at 0.2 µM), -2.9%; in assay [1] (at 1 µM), -3.1%; in assay [1] (at 5 µM) it was -8.6%.

As for `CN(C(=O)c1cnn2cccnc12)c1cc2c(cc1N1CCOCC1)C(=O)N(C[C@@H](F)C(C)(C)O)C2`, the dTM in assay [2] is -0.6 K.

Regarding `C=CC(=O)Nc1cc(-n2c(=O)ccc3cnc4ccc(-c5ccc(NS(C)(=O)=O)cc5)cc4c32)ccc1C`, the % of control in assay [3] (at 1 µM) worked out at 90%; in assay [3] (at 10 µM) it was 63%.

`CN(C)C/C=C/C(=O)Nc1ccc(C(=O)N2CCCC(Nc3ncc(Cl)c(-c4c[nH]c5ccccc45)n3)C2)cc1` (configuration not stated) yielded a % of control in assay [4] of 78%.

In the case of `Nc1cnc(N2CCc3cc(S(=O)(=O)Nc4c(F)cc(Cl)cc4F)cc(N4CCCC4=O)c32)nc1` [TP-020n], the results for the % of control in assay [5] and in assay [6] were 80% and 100%, respectively.

With `COc1cc(N(C)c2ccnc3ccc(C(F)(F)F)cc23)cc(OC)c1OC`, in assay [7], the % binding is 86%.
